Assay results published in patent US9274101B2 (BIOLOG, Inc., priority 2001, dated 2016).

How the values were obtained:
[1] = system: Undifferentiated HL-60 cells; experiment: Energy use by undifferentiated HL-60 cells; format: cell-based, human; details: for activity at 30 µM / activity at 100 µM / activity at 330 µM / activity at 1000 µM / activity at 3300 µM / activity at 10000 µM / activity at 15000 µM / activity at 20000 µM: Homo sapiens, HL-60, 24 h, read-out: Energy Use by Undifferentiated HL-60 Cells; for activity at 30 µM: Conc. 0.03 mM; for activity at 100 µM: Conc. 0.10 mM; for activity at 330 µM: Conc. 0.33 mM; for activity at 1000 µM: Conc. 1.00 mM; for activity at 3300 µM: Conc. 3.3 mM; for activity at 10000 µM: Conc. 10 mM; for activity at 15000 µM: Conc. 15 mM; for activity at 20000 µM: Conc. 20 mM
HL-60 cells [2] = experiment: Effect of 10 mM citric acid on HL-60 energy utilization; format: cell-based, human; details: for Effect of 10 mM Citric Acid on HL-60 Energy Utilization: negative control without energy sources and without citric acid
HL-60 cells [3] = experiment: HL-60 responses to selected compounds at a range of concentrations; format: cell-based, human; details: for response in words: 0.033 to 20 mM; for activity at 30 µM / activity at 100 µM / activity at 330 µM / activity at 1000 µM / activity at 3300 µM / activity at 10000 µM / activity at 15000 µM / activity at 20000 µM: Homo sapiens, HL-60, read-out: HL-60 Cell Responses to Selected Compounds from PM1 and PM2; for activity at 30 µM: Conc. 0.03 mM; for activity at 100 µM: Conc. 0.10 mM; for activity at 330 µM: Conc. 0.33 mM; for activity at 1000 µM: Conc. 1.00 mM; for activity at 3300 µM: Conc. 3.3 mM; for activity at 10000 µM: Conc. 10 mM; for activity at 15000 µM: Conc. 15 mM; for activity at 20000 µM: Conc. 20 mM
How it was run: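 Washed HL-60 cells (5×10^4/well) in DME-R were exposed to test energy sources at final 0.033 to 20 mM for 24 h at 37 °C, then MTS/MPMS was added for a further 24 h. OD490 (ref 650 nm) was corrected with cell-free control plates and normalized to % of no-energy-source control.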

E. coli MG1655 = format: cell-based, Escherichia coli
[4] = system: DMSO-differentiated HL-60 cells; experiment: Energy use by DMSO-differentiated HL-60 cells; format: cell-based, human; details: Homo sapiens, HL-60, 24 h, read-out: Energy Use by DMSO-Differentiated HL-60 Cells; for activity at 30 µM: Conc. 0.03 mM; for activity at 100 µM: Conc. 0.10 mM; for activity at 330 µM: Conc. 0.33 mM; for activity at 1000 µM: Conc. 1.00 mM; for activity at 3300 µM: Conc. 3.3 mM; for activity at 10000 µM: Conc. 10 mM; for activity at 15000 µM: Conc. 15 mM; for activity at 20000 µM: Conc. 20 mM
How it was run: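 HL-60 cells, […] differentiated with 1.25% DMSO for 3 days, were plated at 5×10^4/well in DME-R with test energy sources at 0.033–20 mM final for 24 h at 37 °C. Viability was measured by MTS/PMS at 490 nm (ref 650 nm) 24 h after reagent addition. Values were background-subtracted using cell-free plates and expressed as % of the no-energy-source control.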

[5] = energy source 0.03 mM with 10 mM citric acid
[6] = energy source 0.10 mM with 10 mM citric acid
[7] = energy source 0.33 mM with 10 mM citric acid
[8] = energy source 1.00 mM with 10 mM citric acid
[9] = energy source 3.3 mM with 10 mM citric acid
[10] = energy source 10 mM with 10 mM citric acid
[11] = energy source 15 mM with 10 mM citric acid
[12] = energy source 20 mM with 10 mM citric acid

| SMILES | activity at 30 µM [1] | activity at 100 µM [1] | activity at 330 µM [1] | activity at 1000 µM [1] | activity at 3300 µM [1] | activity at 10000 µM [1] | activity at 15000 µM [1] | activity at 20000 µM [1] | Effect of 10 mM Citric Acid on HL-60 Energy Utilization (HL-60 cells [2]; [5]) | Effect of 10 mM Citric Acid on HL-60 Energy Utilization (HL-60 cells [2]; [6]) | Effect of 10 mM Citric Acid on HL-60 Energy Utilization (HL-60 cells [2]; [7]) | Effect of 10 mM Citric Acid on HL-60 Energy Utilization (HL-60 cells [2]; [8]) | Effect of 10 mM Citric Acid on HL-60 Energy Utilization (HL-60 cells [2]; [9]) | Effect of 10 mM Citric Acid on HL-60 Energy Utilization (HL-60 cells [2]; [10]) | Effect of 10 mM Citric Acid on HL-60 Energy Utilization (HL-60 cells [2]; [11]) | Effect of 10 mM Citric Acid on HL-60 Energy Utilization (HL-60 cells [2]; [12]) | activity at 30 µM (HL-60 cells [3]) | activity at 100 µM (HL-60 cells [3]) | activity at 330 µM (HL-60 cells [3]) | activity at 1000 µM (HL-60 cells [3]) | also measured |
| --- | --- | --- | --- | --- | --- | --- | --- | --- | --- | --- | --- | --- | --- | --- | --- | --- | --- | --- | --- | --- | --- |
| NC(=O)C[C@H](N)C(=O)O [L-asparagine] | 128% | 118% | 118% | 124% | 136% | 141% | 153% | 157% | 10.1 % of negative control | 15.3 % of negative control | 13.4 % of negative control | 24.6 % of negative control | 48.6 % of negative control | 100.1 % of negative control | 97.7 % of negative control | 98.3 % of negative control | 134% | 149% | 138% | 149% | response in words (HL-60 cells [3]): strongly utilized, even at very low concentrations; activity at 3300 µM (HL-60 cells [3]): 135%; activity at 10000 µM (HL-60 cells [3]): 137%; activity at 15000 µM (HL-60 cells [3]): 128%; activity at 20000 µM (HL-60 cells [3]): 118%; suitability as nitrogen source (growth, purple color) (E. coli MG1655): positive; activity at 30 µM [4]: 106%; activity at 100 µM [4]: 112%; activity at 330 µM [4]: 122%; activity at 1000 µM [4]: 143%; activity at 3300 µM [4]: 153%; activity at 10000 µM [4]: 167%; activity at 15000 µM [4]: 152%; activity at 20000 µM [4]: 134% |
| NC(=O)CC[C@H](N)C(=O)O [L-glutamine] | 167% | 214% | 227% | 237% | 249% | 220% | 198% | 172% | 15.0 % of negative control | 57.8 % of negative control | 57.1 % of negative control | 108.0 % of negative control | 135.0 % of negative control | 125.3 % of negative control | 107.3 % of negative control | 86.7 % of negative control | 147% | 161% | 162% | 168% | energy source use in words ([1]; undifferentiated HL-60 cells): responsive to high concentrations; cell activity in the presence of citric acid, in words (HL-60 cells [2]; 10 mM citric acid): able to restore cell activity to a level equal or greater than the negative control; response in words (HL-60 cells [3]): strongly utilized, even at very low concentrations; activity at 3300 µM (HL-60 cells [3]): 161%; activity at 10000 µM (HL-60 cells [3]): 151%; activity at 15000 µM (HL-60 cells [3]): 127%; activity at 20000 µM (HL-60 cells [3]): 92%; suitability as nitrogen source (growth, purple color) (E. coli MG1655): positive; activity at 30 µM [4]: 110%; activity at 100 µM [4]: 149%; activity at 330 µM [4]: 154%; activity at 1000 µM [4]: 156%; activity at 3300 µM [4]: 172%; activity at 10000 µM [4]: 157%; activity at 15000 µM [4]: 121%; activity at 20000 µM [4]: 109% |
| CC(C)[C@H](N)C(=O)O [L-valine] | 89.6% | 93.2% | 83.8% | 78.6% | 86.4% | 89% | 97.7% | 104% | 9.3 % of negative control | 13.4 % of negative control | 12.4 % of negative control | 12.7 % of negative control | 20.8 % of negative control | 32.2 % of negative control | 42.3 % of negative control | 64.5 % of negative control | 117% | 137% | 134% | 135% | activity at 3300 µM (HL-60 cells [3]): 133%; activity at 10000 µM (HL-60 cells [3]): 125%; activity at 15000 µM (HL-60 cells [3]): 122%; activity at 20000 µM (HL-60 cells [3]): 112%; suitability as nitrogen source (growth, purple color) (E. coli MG1655): not suitable; activity at 30 µM [4]: 81.1%; activity at 100 µM [4]: 89.4%; activity at 330 µM [4]: 85.2%; activity at 1000 µM [4]: 86.7%; activity at 3300 µM [4]: 81.2%; activity at 10000 µM [4]: 89.3%; activity at 15000 µM [4]: 81.4%; activity at 20000 µM [4]: 88.6% |
| COC(=O)CCC(=O)O [mono methyl succinate] | 104% | 99.9% | 112% | 141% | 182% | 223% | 261% | 199% | 4.9 % of negative control | 13.0 % of negative control | 16.9 % of negative control | 51.7 % of negative control | 163.6 % of negative control | 210.0 % of negative control | 192.3 % of negative control | 173.9 % of negative control | 118% | 130% | 133% | 142% | activity at 3300 µM (HL-60 cells [3]): 167%; activity at 10000 µM (HL-60 cells [3]): 173%; activity at 15000 µM (HL-60 cells [3]): 139%; activity at 20000 µM (HL-60 cells [3]): 93.3%; activity at 30 µM [4]: 104%; activity at 100 µM [4]: 93.4%; activity at 330 µM [4]: 124%; activity at 1000 µM [4]: 142%; activity at 3300 µM [4]: 184%; activity at 10000 µM [4]: 194%; activity at 15000 µM [4]: 156%; activity at 20000 µM [4]: 118% |
